Test results published in paper PMC11372837, “Albumin-Mediated Drug Uptake by Organic Anion Transporter 1/3 Is Real: Implications for the Prediction of Active Renal Secretion Clearance” (Molecular Pharmaceutics, 2024).
Where “and” joins values, the source holds several entries; their conditions need not be identical. Identical values can stand only once. Like-named read-outs stand apart in the source and are kept apart here.

Experiments:
human serum albumin = human serum albumin (Homo sapiens, UniProt P02768); test: Extent of albumin binding: high throughput equilibrium dialysis (fu,inc, Kd); assay type: in vitro ADME; details: mean ± SD; for Kd: estimated using eq 3 from measured fu,inc; for fraction unbound at 6 h: human, equilibrium dialysis 37 °C 6 h
Description: Briefly, cellulose membranes with MWCO of 12–14 kDa were submerged in distilled water for 1 h, followed by 20% ethanol/distilled water for at least 20 min. Prior to the start of the experiment, cellulose membranes were rinsed in distilled water and submerged in blank DPBS for 15 min. The HTDialysis device was assembled according to the manufacturer’s instructions (https://www.htdialysis.com). Blank DPBS was first added to the receiver side of the dialysis membranes, followed by DPBS spiked with HSA and the OAT1/3 substrate to the donor side. Each HSA concentration was tested in triplicates. The HTDialysis device was sealed with an adhesive sealing film and incubated in a water bath at 37 °C for 6 h shaken at 150 rpm. Once the assay was completed, aliquots from both receiver and donor wells were transferred to a 96-well plate and stored at −80 °C until analysis. DPBS spiked with the OAT1/3 substrate from both before and after incubation was stored to assess the recovery and stability of the samples. To prepare the sample for analysis, donor and receiver samples were matrix-matched and quenched with ice-cold acetonitrile containing an internal standard (0.5 μM gemfibrozil or 0.05 μM buspirone).

OAT1/3 [1] = test: Bottom-up IVIVE of CLint,sec, CLsec and CLr, relative expression factor (REF) approach; set-up: species or system human; details: for CLint,sec Predicted 0% HSA / CLint,sec Predicted 1% HSA / CLint,sec Predicted 4% HSA / CLsec Predicted 0% HSA / CLsec Predicted 1% HSA / CLsec Predicted 4% HSA: REF approach
Description: (§1) The relative expression and relative activity factor (REF and RAF) are unitless scalers that account for in vivo versus in vitro differences in the abundance and activity of OAT1/3 and are used for IVIVE of in vitro CLint,u,active. REF was derived from the OAT1/3 expression ratio between the in vivo human kidney cortex to the in vitro ciPTEC-OAT1/3, as shown in eq 7: [drawing 8] 7 Absolute abundance of OAT1 and OAT3 in the human kidney cortex was previously quantified by our group using the filter-aided sample preparation protocol and global proteomic analysis.[44]

OAT1/3 [2] = test: Bottom-up IVIVE of CLint,sec, CLsec and CLr, relative activity factor (RAF) approach; set-up: species or system human
Description: as §1

[3] = in vivo, plasma renal clearance, clinical data; cited from earlier work
OAT1 = molecular target: T1, OAT1 (Homo sapiens, UniProt Q4U2R8); test: OAT1 uptake study in ciPTEC-OAT1; details: for OAT1 substrate status (uptake in ciPTEC-OAT1): control vs probenecid 300 μM
T1 sequence (Q4U2R8 1-563): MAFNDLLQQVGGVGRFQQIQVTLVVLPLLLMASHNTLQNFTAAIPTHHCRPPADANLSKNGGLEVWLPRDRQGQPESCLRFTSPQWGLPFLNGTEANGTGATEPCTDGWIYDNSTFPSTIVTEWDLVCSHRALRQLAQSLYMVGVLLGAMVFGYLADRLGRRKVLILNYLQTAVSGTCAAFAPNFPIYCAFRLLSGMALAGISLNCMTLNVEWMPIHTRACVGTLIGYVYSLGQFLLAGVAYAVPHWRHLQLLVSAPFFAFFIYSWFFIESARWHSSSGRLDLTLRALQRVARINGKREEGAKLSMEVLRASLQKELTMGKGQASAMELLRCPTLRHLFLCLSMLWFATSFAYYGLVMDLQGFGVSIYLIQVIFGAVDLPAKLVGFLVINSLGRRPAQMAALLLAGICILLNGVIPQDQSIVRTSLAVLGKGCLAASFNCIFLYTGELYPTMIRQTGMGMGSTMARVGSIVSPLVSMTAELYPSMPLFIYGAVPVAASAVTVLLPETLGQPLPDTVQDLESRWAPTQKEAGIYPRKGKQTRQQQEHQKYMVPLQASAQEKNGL

OAT3 = molecular target: T2, OAT3 (Homo sapiens, UniProt Q8TCC7); test: OAT3 uptake study in ciPTEC-OAT3; details: for ratio of CLint,u,active (R) (HSA/control) 1%: OAT3, 1% HSA vs control; for ratio of CLint,u,active (R) (HSA/control) 4%: OAT3, 4% HSA vs control; for Vb,max OAT3, Active and Passive Uptake: eq 4 fitted to CLint,u; for Vb,max OAT3, Active and Passive Uptake / Vb,max OAT3, Active Uptake Only: mean ± S.D.; for Vb,max OAT3, Active Uptake Only: eq 4 fitted to CLint,u,active
T2 sequence (Q8TCC7 1-542): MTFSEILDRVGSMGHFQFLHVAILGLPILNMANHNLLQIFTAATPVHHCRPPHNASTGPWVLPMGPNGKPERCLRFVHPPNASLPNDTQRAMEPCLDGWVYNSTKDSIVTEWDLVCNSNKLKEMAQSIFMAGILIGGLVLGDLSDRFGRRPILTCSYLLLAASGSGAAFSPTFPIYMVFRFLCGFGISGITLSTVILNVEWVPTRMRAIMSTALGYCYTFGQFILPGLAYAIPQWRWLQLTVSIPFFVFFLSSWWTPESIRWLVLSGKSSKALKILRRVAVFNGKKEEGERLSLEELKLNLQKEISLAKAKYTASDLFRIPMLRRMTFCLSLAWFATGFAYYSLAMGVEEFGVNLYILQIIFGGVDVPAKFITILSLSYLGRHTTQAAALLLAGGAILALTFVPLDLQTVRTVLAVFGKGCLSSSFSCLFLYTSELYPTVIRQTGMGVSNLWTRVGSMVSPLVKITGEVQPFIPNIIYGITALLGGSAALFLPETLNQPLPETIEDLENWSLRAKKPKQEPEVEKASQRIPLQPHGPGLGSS

[4] = Observed in vivo (clinical) renal, secretion and intrinsic secretion clearance; details: in vivo; for CLint,sec Observed: back-calculated from clinical data
[5] = human, in vivo
[6] = 1% human serum albumin in DPBS, 1% HSA, read-out: fu,inc (1%)
[7] = 4% HSA in DPBS, 4% HSA, read-out: fu,inc (4%)

Chain of human serum albumin (P02768 25-609): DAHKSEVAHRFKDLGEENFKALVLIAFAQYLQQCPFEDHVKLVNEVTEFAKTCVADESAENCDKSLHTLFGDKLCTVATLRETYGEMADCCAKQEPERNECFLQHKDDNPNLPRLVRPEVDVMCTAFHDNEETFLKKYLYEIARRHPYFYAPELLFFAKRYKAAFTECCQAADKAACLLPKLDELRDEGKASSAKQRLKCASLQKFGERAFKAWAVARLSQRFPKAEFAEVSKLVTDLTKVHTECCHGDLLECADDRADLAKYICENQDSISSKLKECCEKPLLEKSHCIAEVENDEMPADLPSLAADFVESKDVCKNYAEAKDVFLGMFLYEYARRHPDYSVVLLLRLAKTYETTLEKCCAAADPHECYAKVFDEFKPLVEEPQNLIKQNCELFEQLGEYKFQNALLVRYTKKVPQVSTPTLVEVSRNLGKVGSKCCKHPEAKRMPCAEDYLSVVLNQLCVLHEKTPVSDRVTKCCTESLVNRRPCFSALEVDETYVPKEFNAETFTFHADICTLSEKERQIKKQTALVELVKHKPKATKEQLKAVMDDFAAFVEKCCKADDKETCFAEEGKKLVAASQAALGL

Row | Structure (SMILES) | Kd (human serum albumin) | fraction unbound at 6 h (human serum albumin; [6]) | fraction unbound at 6 h (human serum albumin; [7]) | CLint,sec Predicted 0% HSA (OAT1/3 [1]) | CLint,sec Predicted 1% HSA (OAT1/3 [1]) | CLint,sec Predicted 4% HSA (OAT1/3 [1]) | CLsec Predicted 0% HSA (OAT1/3 [1]) | CLsec Predicted 1% HSA (OAT1/3 [1]) | CLsec Predicted 4% HSA (OAT1/3 [1]) | CLint,sec Predicted 0% HSA (OAT1/3 [2]) | CLint,sec Predicted 1% HSA (OAT1/3 [2]) | CLint,sec Predicted 4% HSA (OAT1/3 [2]) | CLsec Predicted 0% HSA (OAT1/3 [2]) | CLsec Predicted 1% HSA (OAT1/3 [2]) | CLsec Predicted 4% HSA (OAT1/3 [2]) | CLr Observed [3] | OAT1 substrate status (uptake in ciPTEC-OAT1) (OAT1) | ratio of CLint,u,active (R) (HSA/control) 1% (OAT3) | ratio of CLint,u,active (R) (HSA/control) 4% (OAT3) | Vb,max OAT3, Active and Passive Uptake (OAT3) | further results
1 | CCCc1nc(C(C)(C)O)c(C(=O)O)n1Cc1ccc(-c2ccccc2-c2nnn[nH]2)cc1 [olmesartan] | 1.43 ± 0.1 µM | 0.011 ± 0.001 | 0.002 ± 0.0002 | 7.92 L/h | 85.2 L/h | 284 L/h | 0.02 L/h | 0.22 L/h | 0.74 L/h | 34.2 L/h | 355 L/h | 976 L/h | 0.09 L/h | 0.92 L/h | 2.40 L/h | 0.61 L/h | dual OAT1/3 substrates | 10.5 ± 2.3 | 28 and 28.1 ± 3.0 | 46.2 ± 12.3 pmol/min/mg | Predicted in vivo percentage transported via OAT1 (versus OAT3) (OAT1/3 [1]; 4% HSA, REF scaler): 33.1%; Predicted in vivo percentage transported via OAT1 (versus OAT3) (OAT1/3 [1]; control phase (0% HSA)): 7.9%; ratio of CLint,u,active (R) (HSA/control) 1% (OAT1; OAT1, 1% HSA vs control, unbound concentration kept constant): 17.9 ± 4.0; ratio of CLint,u,active (R) (HSA/control) 4% (OAT1; OAT1, 4% HSA vs control, unbound concentration kept constant): 122 and 122 ± 42; Vb,max OAT1, Active and Passive Uptake (OAT1; eq 4 fitted to CLint,u, mean ± S.D.): 75.7 ± 15.5 pmol/min/mg; Vb,max OAT1, Active Uptake Only (OAT1; eq 4 fitted to CLint,u,active, Kd,m fixed from OAT3 data, mean ± S.D.): 72.7 ± 15.0 pmol/min/mg; OAT3 substrate status (uptake in ciPTEC-OAT3) (OAT3; control vs probenecid 300 μM): dual OAT1/3 substrates; Vb,max OAT3, Active Uptake Only (OAT3): 44.2 ± 12.3 pmol/min/mg; CLint,sec Observed [4]: 229 L/h; CLint,sec Observed ([4]; listed as Olmesartan): 228 L/h; CLsec Observed ([4]; plasma secretion clearance): 0.59 L/h
2 | CCCN(CCC)S(=O)(=O)c1ccc(C(=O)O)cc1 [probenecid] |  |  |  |  |  |  |  |  |  |  |  |  |  |  |  |  |  |  |  |  | Effect on OAT3-mediated uptake of the substrates (OAT3; probenecid 300 μM, 0% HSA): significantly reduced
3 | CC(C)c1nc(N(C)S(C)(=O)=O)nc(-c2ccc(F)cc2)c1/C=C/[C@@H](O)C[C@@H](O)CC(=O)O [rosuvastatin] | 127 ± 5.6 µM | 0.435 ± 0.041 | 0.18 ± 0.009 | 6.80 L/h | 13.6 L/h | 17.7 L/h | 0.78 L/h | 1.52 L/h | 1.96 L/h | 34.3 L/h | 68.3 L/h | 89.0 L/h | 3.64 L/h | 6.66 L/h | 8.27 L/h | 11.9 L/h | did not show any appreciable uptake | 2.12 ± 0.58 | 2.7 and 2.68 ± 0.62 | 290 ± 101 pmol/min/mg | CLint,sec Observed [5]: 130 L/h; CLsec Observed [5]: 11.1 L/h; Vb,max OAT3, Active Uptake Only (OAT3): 281 ± 96 pmol/min/mg
